Source: paper PMC10894237, “KDM3B inhibitors disrupt the oncogenic activity of PAX3-FOXO1 in fusion-positive rhabdomyosarcoma” (Nature Communications, 2024)

What was measured:
[1] = system: CTR; experiment: cells; parameters: 72 h cell growth/viability dose-response in pediatric solid tumour lines and primary fibroblasts; conditions: Fibroblast, 72 h; read-out: P3FI-63 EC50 (72 hr)
From the text: (§1) The half-maximal effective concentrations (EC50) of P3FI-63 on FP-RMS cell lines RH4, RH30, and SCMC were in the single digit µM range (Fig. 1E). Next, we tested other pediatric solid cancer lines to determine broader applicability of P3FI-63.

[2] = system: HU09; experiment: cells; parameters: 72 h cell growth/viability dose-response in pediatric solid tumour lines and primary fibroblasts; conditions: Fibroblast, 72 h; read-out: P3FI-63 EC50 (72 hr)
From the text: as §1

[3] = system: A673; experiment: cells; parameters: 72 h cell growth/viability dose-response in pediatric solid tumour lines and primary fibroblasts; conditions: Homo sapiens, A673, 72 h; read-out: P3FI-63 EC50 (72 hr)
From the text: as §1

[4] = system: 7250; experiment: cells; parameters: 72 h cell growth/viability dose-response in pediatric solid tumour lines and primary fibroblasts; conditions: 72 h, primary human fibroblast; read-out: P3FI-63 EC50 (72 hr), fibroblast
From the text: as §1

[5] = system: TC-32; experiment: cells; parameters: 72 h cell growth/viability dose-response in pediatric solid tumour lines and primary fibroblasts; conditions: Homo sapiens, TC-32, 72 h; read-out: P3FI-63 EC50 (72 hr)
From the text: as §1

[6] = system: OSA; experiment: cells; parameters: 72 h cell growth/viability dose-response in pediatric solid tumour lines and primary fibroblasts; conditions: Fibroblast, 72 h; read-out: P3FI-63 EC50 (72 hr)
From the text: as §1

[7] = target: T1, KDM3B (Homo sapiens, UniProt Q7LBC6); experiment: cell-free TR-FRET demethylase inhibition assay (Eurofins); type: biochemical
[8] = target: T1, KDM3B; experiment: SPR (Biacore T200); also WaterLOGSY and CPMG ligand-observed NMR, and enzyme inhibition (TR-FRET); type: binding; parameters: full-length KDM3B (His6-Avi-KDM3B) for SPR; enzymatic domain (truncated) for NMR

T1 sequence (Q7LBC6 2-1761): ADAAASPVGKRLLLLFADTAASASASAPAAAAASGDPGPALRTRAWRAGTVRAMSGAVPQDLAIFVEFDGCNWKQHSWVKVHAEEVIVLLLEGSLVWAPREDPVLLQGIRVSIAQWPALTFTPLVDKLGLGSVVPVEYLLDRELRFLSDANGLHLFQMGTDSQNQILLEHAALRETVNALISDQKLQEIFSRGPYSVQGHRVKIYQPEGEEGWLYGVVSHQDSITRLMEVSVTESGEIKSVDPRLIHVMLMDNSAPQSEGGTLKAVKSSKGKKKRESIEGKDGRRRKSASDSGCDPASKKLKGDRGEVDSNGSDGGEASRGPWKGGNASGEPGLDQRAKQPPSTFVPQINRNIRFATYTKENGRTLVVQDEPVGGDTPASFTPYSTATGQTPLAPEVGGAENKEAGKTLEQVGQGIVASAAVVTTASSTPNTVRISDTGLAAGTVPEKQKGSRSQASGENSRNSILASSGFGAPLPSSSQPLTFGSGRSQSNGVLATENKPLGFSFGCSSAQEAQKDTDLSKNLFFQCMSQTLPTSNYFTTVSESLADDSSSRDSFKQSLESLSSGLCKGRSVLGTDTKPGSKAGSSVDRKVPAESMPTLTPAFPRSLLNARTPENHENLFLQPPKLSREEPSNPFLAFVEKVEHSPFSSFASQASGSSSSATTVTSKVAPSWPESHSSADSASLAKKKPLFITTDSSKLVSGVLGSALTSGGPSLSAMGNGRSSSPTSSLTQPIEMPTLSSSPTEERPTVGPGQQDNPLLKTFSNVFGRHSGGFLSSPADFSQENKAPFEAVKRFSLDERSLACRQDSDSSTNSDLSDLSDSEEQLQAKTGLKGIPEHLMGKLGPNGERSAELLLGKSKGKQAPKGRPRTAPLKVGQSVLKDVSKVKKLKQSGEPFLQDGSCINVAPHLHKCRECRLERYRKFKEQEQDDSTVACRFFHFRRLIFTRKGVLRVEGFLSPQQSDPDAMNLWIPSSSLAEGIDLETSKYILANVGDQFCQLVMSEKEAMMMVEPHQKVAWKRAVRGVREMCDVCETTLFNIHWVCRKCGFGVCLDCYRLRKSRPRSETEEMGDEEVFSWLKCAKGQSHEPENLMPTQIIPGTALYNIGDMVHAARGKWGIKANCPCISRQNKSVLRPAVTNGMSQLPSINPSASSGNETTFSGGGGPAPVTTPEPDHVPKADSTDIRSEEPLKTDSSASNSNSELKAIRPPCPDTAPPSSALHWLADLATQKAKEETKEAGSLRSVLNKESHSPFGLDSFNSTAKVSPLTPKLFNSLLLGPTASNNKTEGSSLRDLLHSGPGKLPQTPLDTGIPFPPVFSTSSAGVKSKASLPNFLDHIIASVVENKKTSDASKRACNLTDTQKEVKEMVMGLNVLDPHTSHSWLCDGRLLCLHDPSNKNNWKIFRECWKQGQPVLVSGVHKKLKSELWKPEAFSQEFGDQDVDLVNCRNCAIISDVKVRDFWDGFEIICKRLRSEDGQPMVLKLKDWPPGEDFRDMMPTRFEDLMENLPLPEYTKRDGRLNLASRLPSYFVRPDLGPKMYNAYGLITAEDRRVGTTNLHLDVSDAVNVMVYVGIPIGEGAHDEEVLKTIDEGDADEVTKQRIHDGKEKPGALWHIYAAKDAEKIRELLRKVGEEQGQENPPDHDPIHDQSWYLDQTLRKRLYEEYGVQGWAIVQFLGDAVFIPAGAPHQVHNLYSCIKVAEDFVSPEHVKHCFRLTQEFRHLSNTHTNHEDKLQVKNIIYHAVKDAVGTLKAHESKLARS

Structure (SMILES) | EC50 [1] [µM] | EC50 [2] [µM] | EC50 [3] [µM] | EC50 [4] [µM] | EC50 [5] [µM] | EC50 [6] [µM] | IC50 [7] [µM] | Kd [8] [µM]
Cc1cc(C)cc(C(=O)NNC(=O)c2ccccn2)c1 [P3FI-63] | 2.92 | 3.1 | 3.7 | 6.62 | 1.7 | 7.5 | 7 | –
O=C(NNc1ccccn1)c1ccccn1 [P3FI-90] | – | – | – | – | – | – | – | 7.68
